Measured values as given in US20240116845A1, “INDENE COMPOUNDS, PHARMACEUTICAL COMPOSITIONS THEREOF, AND THEIR THERAPEUTIC APPLICATIONS” (NucMito Pharmaceuticals Co., Ltd., priority 2021, published 2024).

How the values were obtained:
Type in all cases: cell-based
[1] = tested on: alpha-smooth muscle actin (α-SMA); assay: Inhibition of TGF-β induced expression of alpha-smooth muscle actin in CFSC cells (western blot); details: compound at 10 μM, TGF-β (10 ng/mL), 24 hours
Experimental: The ability of a compound to inhibit the TGF-β induced expression of alpha-smooth muscle actin (α-SMA) was evaluated in CCl4-treated fat storing (CFSC) cells. α-SMA is considered as a reliable marker of hepatic stellate cell activation and a key biomarker for liver fibrosis.
CFSC cells maintained in a DMEM medium supplemented with 10% fetal bovine serum were seeded to 12-well culture dishes and grown to a confluence of 60-70% the next day. Culture was changed to a serum-free DMEM medium and the cells were treated with the compound at 10 μM in the presence of TGF-β (10 ng/mL). The cells were incubated for another 24 hours. All culture was maintained at 37° C. in 5% carbon dioxide.
An NP-40 lysate solution (50 mM Tris, pH 7.4, 150 mM NaCl, 1% NP-40) with EDTA free cocktail added was used to lyse the cells on ice for 30 min. The lysate was collected and centrifuged at 4° C. for 10 min at 12,000 rpm. The pellet was discarded and the supernatant was transferred to a new tube. The cell lysate was loaded with 5× loading buffer and boiled for 10 min, resolved by 10% SDS-polyacrylamide gel electrophoresis (SDS-PAGE), and transferred to a PVDF membrane. The membrane was blocked with 5% skim milk in Tris-buffered saline and TWEEN® 20 (TBST; 10 mM Tris-HCl, pH 8.0, 150 mM NaCl, 0.1% TWEEN® 20) for 1 h at room temperature and then incubated with α-SMA and β-actin antibodies overnight at 4° C. After washing twice with TBST, the membrane was probed with a […] anti-immunoglobulin (1:5000 dilution) for 1 h at room temperature. After two subsequent rinses in TBST, immunoreactive products were reacted with ECL and visualized by a UVP CHEMSTUDIO™ imaging system. The western blotting bands are quantitated using an ImageJ software. The percentage of inhibition was obtained by calculating the percentage decrease in the band intensity compared to the one treated with TGF-β only.
The results are summarized in Table 1, where A represents a value no less than 80/% inhibition, B represents a value less than 80% but no less than 50% inhibition, C represents a value less than 50% but no less than 30% inhibition, and D represents a value less than 30% inhibition with a compound at 10 μM.

[2] = tested on: A549 (lung adenocarcinoma); assay: Antiproliferative activity, CCK-8 cell viability; details: Homo sapiens, 72 h, read-out: Inhibition of Cancerous Cells, A549
Experimental: (§1) The antiproliferative activity of a compound was determined in the following cell lines: MDA-MB-231 (breast cancer), HepG2 (liver cancer), SW480 (colon cancer), B16F10 (malignant melanoma), A431 (epidermoid carcinoma), A549 (lung adenocarcinoma), and HeLa (cervical cancer). MDA-MB-231, HepG2, SW480, B16F10, and A431 cells were cultured in Dulbecco's modified Eagle's medium (DMEM) containing 10% fetal bovine serum (FBS). HeLa cells were cultured in MEM/EBSS (MEM) containing 10% FBS. A549 cells were maintained in Kaighn's modification of Ham's F-12 medium containing 10% FBS. The Cell Counting Kit-8 (CCK-8) assay was used to determine the cell viability of cells following treatment with the compound.
(§2) Briefly, cells were seeded in a 96-well plate at a density of 2,000-5,000 cells/well. Following attachment, the cells were treated with the compound in media at a compound concentration of 3.3 μM, 10 μM, or 30 μM, or DMSO as a control. After the cells were incubated at 37° C. for 72 h, the CCK-8 solution (10 μL) was added to each well. After incubation at 37° C. for 4 h, the absorbance value of each well was determined using a multi-well plate reader at 450 nm. The percentage of cell viability was determined with respect to the DMSO-treated cells. The results were summarized in Table 2-4 below, wherein A represents no less than 50% inhibition of cell growth; B represents less than 50% but no less than 30% inhibition of cell growth; C represents less than 30% inhibition of cell growth.

SW480 (colon cancer) = assay: Antiproliferative activity, CCK-8 cell viability; details: Homo sapiens, 72 h, read-out: Inhibition of Cancerous Cells, SW480
Experimental: as §1, §2

[3] = tested on: MDA-MB-231 (breast cancer); assay: Antiproliferative activity, CCK-8 cell viability; details: Homo sapiens, 72 h, read-out: Inhibition of Cancerous Cells, MDA-MB-231
Experimental: as §1, §2

[4] = tested on: B16F10 (malignant melanoma); assay: Antiproliferative activity, CCK-8 cell viability; details: Mus musculus, B16-F10, 72 h, read-out: Inhibition of Cancerous Cells, B16F10
Experimental: as §1, §2

HepG2 (liver cancer) = assay: Antiproliferative activity, CCK-8 cell viability; details: Homo sapiens, 72 h, read-out: Inhibition of Cancerous Cells, HepG2
Experimental: as §1, §2

HeLa (cervical cancer) = assay: Antiproliferative activity, CCK-8 cell viability; details: Homo sapiens, 72 h, read-out: Inhibition of Cancerous Cells, HELA
Experimental: as §1, §2

[5] = compound concentration of 3.3 μM
[6] = compound concentration of 10 μM
[7] = compound concentration of 30 μM

CC1=C(CC(=O)N(C)O)c2cc(F)ccc2/C1=C\c1ccc(C)c2ccccc12 [Compound C1, (Z)-2-(5-Fluoro-2-methyl-1-((4-methylnaphthalen-1-yl)methylene)-1H-inden-3-yl)-N-hydroxy-N-methylacetamide]
inhibition at 10 µM [1]: 50 to 80%

CON(C)C(=O)CC1=C(C)/C(=C/c2ccc(C(C)(C)C)cc2)c2ccc(F)cc21 [Compound B4, (Z)-2-(1-(4-(Tert-butyl)benzylidene)-5-fluoro-2-methyl-1H-inden-3-yl)-N-methoxy-N-methylacetamide]
inhibition at 10 µM [1]: ≥ 80%

CC1=C(CC(=O)O)c2cc(F)ccc2/C1=C\c1ccc(COc2ccc(F)cc2)cc1 [Compound A1, 2-[(1Z)-5-Fluoro-1-(4-((4-fluorophenoxy)methyl)benzylidene)-2-methyl-1H-inden-3-yl]-acetic acid]
inhibition at 10 µM [1]: ≥ 80%

CC1=C(CC(=O)O)c2cc(F)ccc2/C1=C\c1ccc(Oc2cccc(C(C)(C)C)c2)cc1 [Compound D3, 2-[(1Z)-5-Fluoro-2-methyl-1-({4-[3-(tert-butyl)phenoxy]phenyl}methylidene)-1H-inden-3-yl]acetic acid]
inhibition at 10 µM [1]: ≥ 80%

CC1=C(CC(=O)O)c2cc(F)ccc2/C1=C\c1ccc(Oc2ccc(C(F)(F)F)cc2)cc1 [Compound D7, 2-[(1Z)-5-Fluoro-2-methyl-1-({4-[4-(trifluoromethyl)phenoxy]phenyl}-methylidene)-1H-inden-3-yl]acetic acid]
inhibition at 10 µM [1]: ≥ 80%

CC1=C(CC(=O)O)c2cc(F)ccc2/C1=C\c1ccc(Oc2cccc([N+](=O)[O-])c2)cc1 [Compound D6, 2-[(1Z)-5-Fluoro-2-methyl-1-({4-[3-nitrophenoxy]phenyl}methylidene)-1H-inden-3-yl]acetic acid]
inhibition at 10 µM [1]: < 30%

COc1ccc2c(c1)C(CC(=O)O)=C(C)/C2=C/c1ccc(Oc2ccc(F)cc2)cc1 [Compound D10, 2-[(1Z)-5-Methoxy-2-methyl-1-({4-[4-fluorophenoxy]phenyl}methylidene)-1H-inden-3-yl]acetic acid]
inhibition at 10 µM [1]: ≥ 80%

CC1=C(CC(=O)NO)c2cc(F)ccc2/C1=C\c1ccc(C)c2ccccc12 [Compound C2, (Z)-2-(5-Fluoro-2-methyl-1-((4-methylnaphthalen-1-yl)methylene)-1H-inden-3-yl)-N-hydroxyacetamide]
inhibition at 10 µM [1]: ≥ 80%

O=C(O)CC1=C/C(=C/c2ccc(Oc3ccc(F)cc3)cc2)c2ccccc21 [Compound D32, 2-[(1Z)-1-{[4-(4-Fluorophenoxy)phenyl]methylidene}-1H-inden-3-yl]acetic acid]
inhibition at 3.3 µM [2, 5]: < 30%
inhibition at 10 µM [2, 6]: < 30%
inhibition at 30 µM [2, 7]: 30 to 50%
inhibition at 3.3 µM (SW480 (colon cancer); [5]): < 30%
inhibition at 10 µM (SW480 (colon cancer); [6]): < 30%
inhibition at 30 µM (SW480 (colon cancer); [7]): < 30%
inhibition at 3.3 µM [3, 5]: < 30%
inhibition at 10 µM [3, 6]: < 30%
inhibition at 30 µM [3, 7]: 30 to 50%
inhibition at 3.3 µM [4, 5]: < 30%
inhibition at 10 µM [4, 6]: 30 to 50%
inhibition at 30 µM [4, 7]: ≥ 50%
inhibition at 3.3 µM (HepG2 (liver cancer); [5]): ≥ 50%
inhibition at 10 µM (HepG2 (liver cancer); [6]): ≥ 50%
inhibition at 30 µM (HepG2 (liver cancer); [7]): ≥ 50%
inhibition at 3.3 µM (HeLa (cervical cancer); [5]): 30 to 50%
inhibition at 10 µM (HeLa (cervical cancer); [6]): 30 to 50%
inhibition at 30 µM (HeLa (cervical cancer); [7]): ≥ 50%

CC1=C(CC(=O)N(C)O)c2cc(F)ccc2/C1=C\c1ccc(C2CC2)cc1 [Compound B3, (Z)-2-(1-(4-Cyclopropylbenzylidene)-5-fluoro-2-methyl-1H-inden-3-yl)-N-hydroxy-N-methylacetamide]
inhibition at 10 µM [1]: ≥ 80%

CC1=C(CC(=O)O)c2cc(F)ccc2/C1=C\c1ccc(Br)c2ccccc12 [Compound C3, (Z)-2-(1-((4-Bromonaphthalen-1-yl)methylene)-5-fluoro-2-methyl-1H-inden-3-yl)acetic acid]
inhibition at 10 µM [1]: ≥ 80%

CC1=C(CC(=O)NO)c2cc(F)ccc2/C1=C\c1ccc(Oc2ccc(C(C)C)cc2)cc1 [Compound D1, 2-[(1Z)-5-Fluoro-2-methyl-1-({4-[4-(propan-2-yl)phenoxy]phenyl}methylidene)-1H-inden-3-yl]-N-hydroxyacetamide]
inhibition at 10 µM [1]: ≥ 80%

CC1=C(CC(=O)O)c2cc(F)ccc2/C1=C\c1ccc(F)cc1OCc1ccccc1 [Compound A7, 2-[(1Z)-1-{[2-(Benzyloxy)-4-fluorophenyl]methylidene}-5-fluoro-2-methyl-1H-inden-3-yl]acetic acid]
inhibition at 10 µM [1]: < 30%

CC1=C(CC(=O)NO)c2cc(F)ccc2/C1=C\c1ccc(Br)c2ccccc12 [Compound C4, (Z)-2-(1-((4-Bromonaphthalen-1-yl)methylene)-5-fluoro-2-methyl-1H-inden-3-yl)-N-hydroxyacetamide]
inhibition at 10 µM [1]: ≥ 80%

CC1=C(CC(=O)O)c2cc(F)ccc2/C1=C/c1ccc(Oc2ccccc2)cc1 [Compound E3, 2-[(1E)-5-Fluoro-2-methyl-1-[(4-phenoxyphenyl)methylidene]-1H-inden-3-yl]acetic acid]
inhibition at 10 µM [1]: ≥ 80%

CC1=C(CC(=O)O)c2cc(F)ccc2/C1=C/c1ccc(Oc2ccc(F)cc2)cc1 [Compound E2, 2-[(1E)-5-Fluoro-2-methyl-1-({4-[4-fluorophenoxy]phenyl}methylidene)-1H-inden-3-yl]acetic acid]
inhibition at 10 µM [1]: ≥ 80%

CC1=C(CC(=O)O)c2cc(F)ccc2/C1=C\c1ccc(COc2ccc(F)cc2)cc1C(F)(F)F [Compound A14, 2-[(1Z)-5-Fluoro-1-({4-[(4-fluorophenoxy)methyl]-2-(trifluoromethyl)phenyl}-methylidene)-2-methyl-1H-inden-3-yl]acetic acid]
inhibition at 10 µM [1]: ≥ 80%

CC1=C(CC(=O)O)c2cc(F)ccc2/C1=C\c1ccnc2ccccc12 [Compound C5, (Z)-2-(5-Fluoro-2-methyl-1-(quinolin-4-ylmethylene)-1H-inden-3-yl)acetic acid]
inhibition at 10 µM [1]: ≥ 80%
